Assay results taken from patent US4720494A, “Anticholinergic eucatropine esters and antiperspirant use thereof” (priority 1984, dated 1988).
Where “and” joins values, the source holds several entries; their conditions need not be identical. Identical values can stand only once.

What was measured:
[1] = tested on: pupil light reflex of rabbit eye; test: Rabbit abolition of light reflex assay (RALR), mydriasis
Excerpt: In order to determine the potential for mydriasis produced by the anticholinergic antiperspirant compositions of our invention, the rabbit abolition of light reflex assay was employed. In this assay, solutions of test compounds are instilled in the eyes of rabbits and response to light stimulus followed as a function of time.
The test animals used were female, New Zealand albino rabbits which were 12 to 14 weeks old when first used for testing. A test group consisted of fifteen animals and could be used 8 to 10 weeks before the rabbits became too large to handle.
Prior to the first use of a rabbit group, a determination of the responsiveness of each pupil to a light stimulus was determined. Under room illumination provided by fluorescent tubes, the bilateral symmetry of the pupil light reflex was ascertained by directing a beam of light from a penlight-type of flashlight into each pupil. If proper response was present, the animals were subsequently used.
The mydriatic response to an anticholinergic was determined in the following manner. The animals were held in wooden restrainer boxes during the test. The distance between the mid-sagittal plane of one animal and that of the immediately adjacent animal was 11 inches. Into one conjunctival sac of each animal was installed 0.1 mL of a given concentration of the compound under test in 0.9% sodium chloride. […] Thus, for eucatropine derivatives, solutions were prepared to correspond to one percent eucatropine.HCl. After installation of the solution, the lids of the treated eye were held closed for one minute to prevent the loss of the test dose. After this time the lids were held open by gentle finger pressure, and the cornea and conjunctival sac irrigated with one mL of 0.9% aqueous sodium chloride applied in drops from a 10 mL syringe. The procedure was repeated in the other eye using 0.1 mL 0.9% saline as a control. Each rabbit was treated at two to three minutes following the preceding rabbit.
Observation of the rabbit eye pupil size was made at 30, 60 and 120 minutes after treatment by directing a penlight beam into each pupil. The response of both pupils to light was observed. Any degree of contraction of the pupil of the treated eye which was obviously less than that of the untreated eye was recorded as incomplete (partial) inhibition of the reflex. Failure of the pupil of the treated eye to contract in response to light was recorded as complete inhibition of the reflex. The responses of each rabbit were recorded. Both partial and complete inhibition were recorded as inhibited. The animals were not used again for at least 72 hours and the same eye was not used for treatment by test solutions in successive experiments.

[2] = tested on: sweating of mouse foot (pilocarpine-stimulated); test: Mouse foot antiperspirant assay; format: in vivo, ICR/CD-1 male albino mice; conditions: for EC50: s.c. 5 μL in foot pad, pilocarpine-stimulated sweating, average EC50; for antiperspirant potency relative to eucatropine (in words): DCC esters, compared with parent eucatropine
Experimental: For the dose-response determination, four or five groups of 10 ICR/CD-1 male albino mice weighing approximately 20 gm were used. The animals were anaesthetized with 0.20 mL of a 250 mg/mL solution of ethyl carbamate injected intraperitoneally. Anticholinergic test solutions using 0.9% aqueous sodium chloride were injected subcutaneously under the plantar foot pads of the right hind feet of 10 mice per concentration. The 26 gauge, 2 in. needle of a Hamilton 5 μL syringe was inserted at the rear of the plantar surface and threaded forward. The dose, 5 μL, was delivered subcutaneously near the interdigital foot pads. Subsequently, both hind feet were coated with a 1:1 suspension of soluble starch in 2% ethanolic iodine-castor oil.
At 5 minutes after test solution injection, sweating was stimulated by injecting each animal intraperitoneally with 0.20 mL of 1 mg/mL pilocarpine.HCl in 0.9% aqueous sodium chloride. The appearance of blue-black spots within five minutes after stimulation by pilocarpine was the criterion for sweating. The criterion for the animals responding to the anticholinergic was absence of sweating on two or more tubercles of the treated foot. A 7X magnifying glass was used to enlarge the foot for evaluation.
As many concentrations were tested as needed to obtain two points with more than 50% but less than 100% of the animals responding and two points with less than 50% but more than 0% of the animals responding.
For some esters it was necessary to alter the concentration interval to obtain the appropriate spread of responses in a minimum of trials. […] Each compound was run at least twice. The average EC50 was used for comparison with other anticholinergics.

[3] = esters synthesized by DCC method, fraction of animals with inhibition at 60 min, 1% solutions based on eucatropine
[4] = esters synthesized by DCC method
[5] = esters synthesized via acid chloride, fraction of animals with inhibition at 60 min, 1% solutions based on eucatropine
[6] = esters synthesized via acid chloride

EC50 [2, 4]	RALR (60 min.) ([1]; rabbit, in vivo)	Compound	RALR (60 min.) [1, 3]	antiperspirant potency relative to eucatropine (in words) [2]	also measured
78 mM	0.67	O=C(O)C1CCCC1 [Cyclopentanecarboxylate]	–	–	–
2 mM	0.40	CC1CC(OC(=O)C(OC(=O)c2ccccn2)c2ccccc2)CC(C)(C)N1C.Cl (centres unmarked)	–	only a slight decrease in antiperspirant potency relative to eucatropine	–
16 mM	–	COc1ccc(C(=O)OC(C(=O)OC2CC(C)N(C)C(C)(C)C2)c2ccccc2)cc1.Cl (centres unmarked)	–	–	–
1.4 mM	–	CC1CC(OC(=O)C(OC(=O)C(Cl)c2ccccc2)c2ccccc2)CC(C)(C)N1C.Cl (centres unmarked)	–	equalled or nearly equalled that of the parent eucatropine	–
4.7 mM and 4.8 mM	1.00	CC1CC(OC(=O)C(OC(=O)C2CC2)c2ccccc2)CC(C)(C)N1C.Cl (centres unmarked)	–	–	EC50 [2, 6]: 36 mM
84 mM	–	Cc1ccc(C(=O)OC(C(=O)OC2CC(C)N(C)C(C)(C)C2)c2ccccc2)cc1.Cl (centres unmarked) [p-Toluate]	–	–	–
1.6 mM	0.88	CC(C)C(=O)O [Isobutyrate]	–	–	–
–	–	CC1CC(OC(=O)C(OC(=O)c2ccnc3ccccc23)c2ccccc2)CC(C)(C)N1C.Cl (centres unmarked)	0.60	a reduction in EC50 over eucatropine	mydriasis in the rabbit eye (in words) ([1]; compared with eucatropine): reduced mydriasis
87 mM	0.67	CC1CC(OC(=O)C(OC(=O)CC2CCCCC2)c2ccccc2)CC(C)(C)N1C.Cl (centres unmarked)	–	–	–
67 mM	1.00	CC1CC(OC(=O)C(OC(=O)CC2CCCC2)c2ccccc2)CC(C)(C)N1C.Cl (centres unmarked)	–	–	–
5.2 mM	0.00	CC1CC(OC(=O)C(OC(=O)c2ccncc2)c2ccccc2)CC(C)(C)N1C.Cl (centres unmarked)	–	only a slight decrease in antiperspirant potency relative to eucatropine	mydriasis in the rabbit eye (in words) ([1]; rabbit, in vivo): no mydriasis
41 mM	–	CC1CC(OC(=O)C(OC(=O)C2CCCCC2)c2ccccc2)CC(C)(C)N1C.Cl (centres unmarked)	–	–	EC50 [2, 6]: 43 mM
–	1.00	CC1CC(OC(=O)C(O)c2ccccc2)CC(C)(C)N1C (centres unmarked) [H, eucatropine]	–	–	incomplete response (light reflex) in rabbits at 60 minutes ([1]; rabbit, in vivo): eight out of eight; EC50 ([2]; Mus musculus, sc, parent eucatropine (ester group H)): 7.2 mM
11 mM	0.80	CC1CC(OC(=O)C(OC(=O)c2cnccn2)c2ccccc2)CC(C)(C)N1C.Cl (centres unmarked)	–	a reduction in EC50 over eucatropine	mydriasis in the rabbit eye (in words) ([1]; rabbit, in vivo): reduced mydriasis
18 mM	1.00	CC1CC(OC(=O)C(OC(=O)C2CCC2)c2ccccc2)CC(C)(C)N1C.Cl (centres unmarked)	–	–	–

Compound	EC50 [2, 4]	RALR (60 min.) ([1]; rabbit, in vivo)	RALR (60 min.) [1, 3]	antiperspirant potency relative to eucatropine (in words) [2]	also measured
CC1CC(OC(=O)C(OC(=O)c2ccc(N(C)C)cc2)c2ccccc2)CC(C)(C)N1C.Cl (centres unmarked)	25 mM	–	0.27	–	–
Phenylacetate	5.3 mM	–	1.00	equalled or nearly equalled that of the parent eucatropine	RALR (60 min.) [1, 5]: 0.47; EC50 [2, 6]: 78 mM
CC1CC(OC(=O)C(OC(=O)c2cnc3ccccc3c2)c2ccccc2)CC(C)(C)N1C.Cl (centres unmarked)	10 mM	–	0.73	a reduction in EC50 over eucatropine	mydriasis in the rabbit eye (in words) ([1]; compared with eucatropine): reduced mydriasis
Benzoate	0.3 mM	–	0.88 and 0.87	more potent than eucatropine	RALR (60 min.) [1, 5]: 0.20; EC50 [2, 6]: 25 mM
CC1CC(OC(=O)C(OC(=O)c2cccnc2)c2ccccc2)CC(C)(C)N1C.Cl (centres unmarked) [Nicotinate]	6.5 mM	–	0.60	only a slight decrease in antiperspirant potency relative to eucatropine	–
CCCCCCCC(=O)OC(C(=O)OC1CC(C)N(C)C(C)(C)C1)c1ccccc1.Cl (centres unmarked) [Octanoate]	11 mM	–	0.93	–	RALR (60 min.) [1, 5]: 0.50; EC50 [2, 6]: 9.6 mM
